The assay deals with c-kit (Homo sapiens, UniProt P10721). Nature of the assay: c-kit assays of Examples 40 and 41 (AlphaScreen kinase assays at 10 and 100 μM ATP, 33P-ATP filter assay, M-07e SCF-stimulated proliferation and phosphorylation). Background: In Alpha technology, singlet oxygen from a donor bead excites a nearby acceptor bead.

A value given as a limit tells only on which side of the number the result lay.

c-kit, sequence (P10721 with tags, fused parts or gaps): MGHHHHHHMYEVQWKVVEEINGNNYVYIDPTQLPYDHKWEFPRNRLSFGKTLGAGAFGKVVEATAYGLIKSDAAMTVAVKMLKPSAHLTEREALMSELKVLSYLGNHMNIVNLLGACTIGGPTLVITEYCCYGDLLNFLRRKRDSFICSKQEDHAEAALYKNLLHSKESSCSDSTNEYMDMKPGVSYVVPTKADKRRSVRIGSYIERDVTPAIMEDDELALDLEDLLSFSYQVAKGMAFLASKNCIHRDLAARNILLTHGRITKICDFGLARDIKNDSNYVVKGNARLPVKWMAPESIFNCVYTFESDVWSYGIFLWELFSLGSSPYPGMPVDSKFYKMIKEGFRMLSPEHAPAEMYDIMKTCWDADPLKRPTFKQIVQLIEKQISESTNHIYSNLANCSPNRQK

What is called IC50 is the concentration at which inhibition is half-maximal. Consider `O=C(Nc1ccc(Cc2c[nH]c3ncccc23)cn1)c1ccnc(Cl)c1` [P-0123, 2-Chloro-N-[5-(1H-pyrrolo[2,3-b]pyridin-3-ylmethyl)-pyridin-2-yl]-isonicotinamide], for which the IC50 was less than 1000 nM.

`C[C@@H](Nc1ccc(Cc2c[nH]c3ncccc23)cn1)c1ccccc1` [P-0125, ((R)-1-Phenyl-ethyl)-[5-(1H-pyrrolo[2,3-b]pyridin-3-ylmethyl)-pyridin-2-yl]-amine] registered an IC50 of less than 1000 nM.

Consider `c1cc(CNc2ccc(Cc3c[nH]c4ncccc34)cn2)cc(N2CCOCC2)c1` [P-0126, (3-Morpholin-4-yl-benzyl)-[5-(1H-pyrrolo[2,3-b]pyridin-3-ylmethyl)-pyridin-2-yl]-amine], for which the IC50 was less than 1000 nM.

In the case of `CC(Nc1ccc(Cc2c[nH]c3ncccc23)cn1)c1ccccc1F` (stereo not shown) [P-0127, [1-(2-Fluoro-phenyl)-ethyl]-[5-(1H-pyrrolo[2,3-b]pyridin-3-ylmethyl)-pyridin-2-yl]-amine], the IC50 was less than 1000 nM.

`Fc1cccc(CCNc2ccc(Cc3c[nH]c4ncccc34)cn2)c1` [P-0128, [2-(3-Fluoro-phenyl)-ethyl]-[5-(1H-pyrrolo[2,3-b]pyridin-3-ylmethyl)-pyridin-2-yl]-amine] showed an IC50 of less than 1000 nM.

Turning to `Clc1cccc(CNc2ccc(Cc3c[nH]c4ncccc34)cn2)c1` [P-0129, (3-chloro-benzyl)-[5-(1H-pyrrolo[2,3-b]pyridin-3-ylmethyl)-pyridin-2-yl]-amine], the IC50 is less than 1000 nM.

As to `Cc1cc(CNc2ccc(Cc3c[nH]c4ncccc34)cn2)nn1C` [P-0131, (1,5-Dimethyl-1H-pyrazol-3-ylmethyl)-[5-(1H-pyrrolo[2,3-b]pyridin-3-ylmethyl)-pyridin-2-yl]-amine], the IC50 is less than 1000 nM.

In the case of `Fc1nc(NCc2ccc(Cl)cc2)ccc1Cc1c[nH]c2ncc(Cl)cc12` [P-0132, (4-Chloro-benzyl)-[5-(5-chloro-1H-pyrrolo[2,3-b]pyridin-3-ylmethyl)-6-fluoro-pyridin-2-yl]-amine], the IC50 was less than 1000 nM.

As for `Cc1nn(Cc2ccc(C(F)(F)F)o2)c(C)c1Cc1c[nH]c2ncccc12` [P-0138, 3-[3,5-Dimethyl-1-(5-trifluoromethyl-furan-2-ylmethyl)-1H-pyrazol-4-ylmethyl]-1H-pyrrolo[2,3-b]pyridine], the IC50 is less than 1000 nM.

Compound `Cc1nc(-c2ccc(C(F)(F)F)cc2)sc1Cn1nc(C)c(Cc2c[nH]c3ncccc23)c1C` [P-0143, 3-{3,5-Dimethyl-1-[4-methyl-2-(4-trifluoromethyl-phenyl)-thiazol-5-ylmethyl]-1H-pyrazol-4-ylmethyl}-1H-pyrrolo[2,3-b]pyridine] came in with an IC50 of less than 1000 nM.

As for `Cc1nc(-c2ccccc2)sc1Cn1nc(C)c(Cc2c[nH]c3ncccc23)c1C` [P-0144, 3-[3,5-Dimethyl-1-(4-methyl-2-phenyl-thiazol-5-ylmethyl)-1H-pyrazol-4-ylmethyl]-1H-pyrrolo[2,3-b]pyridine], the IC50 is less than 1000 nM.

`COc1ccccc1CNC(=O)n1nc(C)c(Cc2c[nH]c3ncccc23)c1C` [P-0145, 3,5-Dimethyl-4-(1H-pyrrolo[2,3-b]pyridin-3-ylmethyl)-pyrazole-1-carboxylic acid 2-methoxy-benzylamide]: the IC50 is less than 1000 nM.

`Cc1nn(C(=O)NCCc2ccccc2F)c(C)c1Cc1c[nH]c2ncccc12` [P-0148, 3,5-Dimethyl-4-(1H-pyrrolo[2,3-b]pyridin-3-ylmethyl)-pyrazole-1-carboxylic acid [2-(2-fluoro-phenyl)-ethyl]-amide]: the IC50 was less than 1000 nM.

`Fc1ccc(Cc2c[nH]c3ncccc23)c(F)n1` [P-0154, 3-(2,6-difluoro-pyridin-3-ylmethyl)-1H-pyrrolo[2,3-b]pyridine] came in with an IC50 of less than 1000 nM.

As to `Cc1nn(C(=O)NCc2ccc(Cl)cc2)c(C)c1Cc1c[nH]c2ncc(Cl)cc12` [P-0159, 4-(5-Chloro-1H-pyrrolo[2,3-b]pyridin-3-ylmethyl)-3,5-dimethyl-pyrazole-1-carboxylic acid 4-chloro-benzylamide], the IC50 is less than 1000 nM.

The compound `Clc1ccc(CNc2ccc(Cc3c[nH]c4ncccc34)c(Cl)n2)cc1` [P-0161, (4-Chloro-benzyl)-[6-chloro-5-(1H-pyrrolo[2,3-b]pyridin-3-ylmethyl)-pyridin-2-yl]-amine] registered an IC50 of less than 1000 nM.

With `Cc1nc(NCc2ccc(F)cc2)sc1Cc1c[nH]c2ncccc12` [P-0163, (4-Fluoro-benzyl)-[4-methyl-5-(1H-pyrrolo[2,3-b]pyridin-3-ylmethyl)-thiazol-2-yl]-amine], the IC50 was less than 1000 nM.

For the compound `Cn1nc(NCc2ccc(F)cc2)cc1Cc1c[nH]c2ncc(Cl)cc12` [P-0170, [5-(5-Chloro-1H-pyrrolo[2,3-b]pyridin-3-ylmethyl)-1-methyl-1H-pyrazol-3-yl]-(4-fluoro-benzyl)-amine], the IC50 was less than 1000 nM.

`FC(F)(F)c1ccc(CNc2nc(Cl)c(Cc3c[nH]c4ncccc34)s2)cn1` [P-0173, [4-Chloro-5-(1H-pyrrolo[2,3-b]pyridin-3-ylmethyl)-thiazol-2-yl]-(6-trifluoromethyl-pyridin-3-ylmethyl)-amine] registered an IC50 of less than 1000 nM.

Compound `FC(F)(F)c1ccc(CNc2ccc(Cc3c[nH]c4ncccc34)c(Cl)n2)cn1` [P-0174, [6-Chloro-5-(1H-pyrrolo[2,3-b]pyridin-3-ylmethyl)-pyridin-2-yl]-(6-trifluoromethyl-pyridin-3-ylmethyl)-amine] displayed a half-maximal inhibitory concentration (IC50) of less than 1000 nM.

`FC(F)(F)c1ccc(CNc2ccc(Cc3c[nH]c4ncc(Cl)cc34)c(Cl)n2)cn1` [P-0176, [6-Chloro-5-(5-chloro-1H-pyrrolo[2,3-b]pyridin-3-ylmethyl)-pyridin-2-yl]-(6-trifluoromethyl-pyridin-3-ylmethyl)-amine] showed an IC50 of less than 1000 nM.

`FC(F)(F)c1ccc(CNc2ccc(Cc3c[nH]c4ncccc34)cn2)cn1` [P-0182, [5-(1H-Pyrrolo[2,3-b]pyridin-3-ylmethyl)-pyridin-2-yl]-(6-trifluoromethyl-pyridin-3-ylmethyl)-amine] came in with an IC50 of less than 1000 nM.

`Fc1nc(NCc2ccc(C(F)(F)F)nc2)ccc1Cc1c[nH]c2ncc(Cl)cc12` [P-0186, [5-(5-Chloro-1H-pyrrolo[2,3-b]pyridin-3-ylmethyl)-6-fluoro-pyridin-2-yl]-(6-trifluoromethyl-pyridin-3-ylmethyl)-amine] came in with an IC50 of less than 1000 nM.

For `COc1cnc2[nH]cc(Cc3ccc(NCc4ccc(C(F)(F)F)nc4)nc3F)c2c1` [P-0187, [6-Fluoro-5-(5-methoxy-1H-pyrrolo[2,3-b]pyridin-3-ylmethyl)-pyridin-2-yl]-(6-trifluoromethyl-pyridin-3-ylmethyl)-amine], the IC50 is less than 1000 nM.

Compound `Fc1nc(NCc2ccc(C(F)(F)F)nc2)ccc1Cc1c[nH]c2ncccc12` [P-0188, [6-Fluoro-5-(1H-pyrrolo[2,3-b]pyridin-3-ylmethyl)-pyridin-2-yl]-(6-trifluoromethyl-pyridin-3-ylmethyl)-amine] registered an IC50 of less than 1000 nM.

Consider `COc1ccc(CNc2nc(Cl)c(Cc3c[nH]c4ncc(Cl)cc34)s2)cn1` [P-0190, [4-Chloro-5-(5-chloro-1H-pyrrolo[2,3-b]pyridin-3-ylmethyl)-thiazol-2-yl]-(6-methoxy-pyridin-3-ylmethyl)-amine], for which the IC50 is less than 1000 nM.

`Clc1cnc2[nH]cc(Cc3sc(NCc4ccccc4)nc3Cl)c2c1` [P-0192, Benzyl-[4-chloro-5-(5-chloro-1H-pyrrolo[2,3-b]pyridin-3-ylmethyl)-thiazol-2-yl]-amine] displayed an IC50 of less than 1000 nM.

Compound `COc1cccc(CNc2nc(Cl)c(Cc3c[nH]c4ncc(Cl)cc34)s2)c1` [P-0193, [4-Chloro-5-(5-chloro-1H-pyrrolo[2,3-b]pyridin-3-ylmethyl)-thiazol-2-yl]-(3-methoxy-benzyl)-amine] registered an IC50 of less than 1000 nM.

Regarding `Clc1ccc(CNc2nc(Cl)c(Cc3c[nH]c4ncc(Cl)cc34)s2)cc1` [P-0194, (4-Chloro-benzyl)-[4-chloro-5-(5-chloro-1H-pyrrolo[2,3-b]pyridin-3-ylmethyl)-thiazol-2-yl]-amine], the IC50 was less than 1000 nM.

`CCc1nc(C)c(CNc2nc(Cl)c(Cc3c[nH]c4ncc(Cl)cc34)s2)[nH]1` [P-0197, [4-Chloro-5-(5-chloro-1H-pyrrolo[2,3-b]pyridin-3-ylmethyl)-thiazol-2-yl]-(2-ethyl-5-methyl-3H-imidazol-4-ylmethyl)-amine]: the IC50 was less than 1000 nM.

The compound `COc1cccc(CNc2nc(Cl)c(Cc3c[nH]c4ncc(Cl)cc34)s2)n1` [P-0199, [4-Chloro-5-(5-chloro-1H-pyrrolo[2,3-b]pyridin-3-ylmethyl)-thiazol-2-yl]-(6-methoxy-pyridin-2-ylmethyl)-amine] displayed an IC50 of less than 1000 nM.

Regarding `CCc1nc(C)c(CNc2nc(Cl)c(Cc3c[nH]c4ncccc34)s2)[nH]1` [P-0205, [4-Chloro-5-(1H-pyrrolo[2,3-b]pyridin-3-ylmethyl)-thiazol-2-yl]-(2-ethyl-5-methyl-3H-imidazol-4-ylmethyl)-amine], the IC50 was less than 1000 nM.

The compound `Cc1cc(CNc2nc(Cl)c(Cc3c[nH]c4ncccc34)s2)sc1C` [P-0208, [4-Chloro-5-(1H-pyrrolo[2,3-b]pyridin-3-ylmethyl)-thiazol-2-yl]-(4,5-dimethyl-thiophen-2-ylmethyl)-amine] registered an IC50 of less than 1000 nM.

`c1ccc(CCNc2ccc(Cc3c[nH]c4ncccc34)cn2)cc1` [P-0211, Phenethyl-[5-(1H-pyrrolo[2,3-b]pyridin-3-ylmethyl)-pyridin-2-yl]-amine] returned an IC50 of less than 1000 nM.

For the compound `Fc1ccc(CNc2ccc(Cc3c[nH]c4ncccc34)cn2)c(F)c1` [P-0212, (2,4-Difluoro-benzyl)-[5-(1H-pyrrolo[2,3-b]pyridin-3-ylmethyl)-pyridin-2-yl]-amine], the IC50 was less than 1000 nM.

`Fc1ccccc1CNc1ccc(Cc2c[nH]c3ncccc23)cn1` [P-0213, (2-Fluoro-benzyl)-[5-(1H-pyrrolo[2,3-b]pyridin-3-ylmethyl)-pyridin-2-yl]-amine]: the IC50 was less than 1000 nM.

Regarding `Brc1cnccc1CNc1ccc(Cc2c[nH]c3ncccc23)cn1` [P-0214, (3-Bromo-pyridin-4-ylmethyl)-[5-(1H-pyrrolo[2,3-b]pyridin-3-ylmethyl)-pyridin-2-yl]-amine], the IC50 is less than 1000 nM.

The record behind these values is patent publication US9487515B2, “Compounds modulating c-fms and/or c-kit activity and uses therefor” (Plexxikon Inc., priority 2006, dated 2016).
